Our source for the IC50 and melting point values is patent US6372740B1, “2-aryl-8-oxodihydropurine derivative, process for the producing the same, medicinal compositions containing the same, and intermediates thereof” (Dainippon Pharmaceutical Co., Ltd., priority 1997, dated 2002).

Usually IC50 stands for the concentration needed to halve the response being measured. One may read the melting point as the temperature, or range, at which the solid turns liquid.

Bounds are passed on as bounds.

In the first data set the target is T1, BZω3 receptor (Rattus norvegicus, UniProt P16257).
T1 construct: from tissue; host or cells: rat (Wistar) kidney membrane fraction
Put plainly: BZω3 (peripheral) benzodiazepine receptor binding assay, [3H] 4'-chlorodiazepam (Ro 5-4864). The conditions noted are these: rat kidney membrane, [3H] Ro 5-4864 0.5 nM, 150 minutes at 0° C.; read-out: ω3 IC50. The method, then: Experiment 1: Central (ω1,ω2) and Peripheral (ω3) Benzodiazepine Receptor Binding Assays
BZω1 and BZω2 receptor binding assays and the preparation of receptor membrane fractions therefor were carried out according to the method of Stephens, D. N. et al. [cf., J. Pharmacol. Exp. Ther., 253, 334-343 (1990)], and BZω3 receptor binding assay and the preparation of receptor membrane fraction therefor were done according to the method of Schoemaker, H. [cf, J. Pharmacol. Exp. Ther., 225, 61-69 (1983)] each with slight modification.
Receptor membrane fractions for ω1, ω2 and ω3 were prepared from the cerebellum (ω1), spinal cord (ω2) or kidney (ω3) in 7-8 week old male rats of Wistar strain, respectively, by the procedure described below.
After the cerebellum or spinal cord was homogenized with 20 volumes of ice-cold 50 mM Tris-citrate buffer (pH 7.1), the homogenate was centrifuged for 15 minutes at 40,000 g. The pellet obtained was washed 4 times by the same procedure, and frozen and stored for 24 hours at −60° C. The resulting pellet, after being thawed, washed with the buffer and centrifuged, was suspended in the buffer I for the binding assay (50 mM Tris-HCl buffer containing 120 mM NaCl, 5 mM KCl, 2 mM CaCl2 and 1 mM MgCl2; pH 7.4) and the suspension thus obtained (containing 1 g wet tissue/40 ml) was used for the BZω1 and BZω2receptor binding assays. On the other hand, the kidney was homogenized with 20 volumes of the ice-cold buffer II for the binding assay (50 mM Na-K phosphate buffer containing 100 mM NaCl; pH 7.4), and the mixture was filtered through 4 sheets of gauze, and centrifuged for 20 minutes at 40,000 g. The pellet obtained was suspended in the buffer II and the suspension (containing 1 g wet tissue/100 ml) was used for the binding assay as BZω3 receptor membrane source.
[^3H] Flumazenil (Ro 15-1788) (final concentration: 0.3 nM for ω1, and 1 nM for ω2) and flunitrazepam (final concentration: 10 μM) were used for the BZω1 or BZω2 receptor binding assays as the isotope-labeled and unlabeled ligands, respectively. For the BZω3 receptor binding assay, [^3H] 4′-chlorodiazepam (7-chloro-1,3-dihydro-1-methyl-5-(4-chlorophenyl)-2H-1,4-diazepin-2-one) (Ro 5-4864) (final concentration: 0.5 nM) and diazepam (final concentration: 100 μM) were used as the isotope-labeled and unlabeled ligands, respectively. Incubation was performed for 30 minutes at 37° C. in the BZω1 or BZω2 receptor binding assays, and for 150 minutes at 0° C. in the BZω3 receptor binding assay. The BZω1 or BZω2 receptor binding assays were carried out in the presence of bicuculline (final concentration: 100 μM).
The binding assay was performed by the following procedure. After adding each test compound at certain known concentrations, a [^3H] ligand, and the buffer I or II to each test tube, each assay was started by addition of membrane preparation (total volume of 1 ml). After incubation, the assay was terminated by filtration with suction through a Whatman GF/B glass fiber filter using a cell harvester (Brandel, USA). The filters were rapidly washed 3 times with 5 ml of ice-cold 50 mM Tris-HCl buffer (pH 7.7) for ω1 and ω2, or the buffer II for ω3, and transferred to scintillation vials containing 10 ml liquid scintillation cocktail (ACS-II, Amersham, USA). After being allowed to stand for a specific period, retained radioactivity was counted by a liquid scintillation spectrometer. Specific binding of [^3H] ligands was calculated as the difference between amounts of radioactivity bound in the presence and absence of excess unlabeled ligands. The concentration of the test compounds causing 50% inhibition of specific binding of the [3H] ligand (IC50) was determined by probit analysis.
Turning to `CCCN(CCC)C(=O)Cn1c(=O)n(C)c2nc(-c3ccccc3)ncc21` [Example 26], the IC50 amounted to 2.3 nM.
In the case of `CCN(Cc1cccc(F)c1)C(=O)Cn1c(=O)n(C)c2nc(-c3ccccc3)ncc21` [Example 75], the IC50 worked out at 1.3 nM.
On the same count and under the same terms, the same measure for `COc1ccc(-c2ncc3c(n2)n(C)c(=O)n3CC(=O)N(C)Cc2ccccc2)cc1` [Example 51]: 1.2 nM; for `CCN(Cc1ccccc1)C(=O)Cn1c(=O)n(CC)c2cnc(-c3ccccc3)nc21` [Example 150]: 0.81 nM.
Same read-out and setting: as for `CCCN(CCC)C(=O)Cn1c(=O)[nH]c2cnc(-c3ccc(F)cc3)nc21` [Example 81], the figure is 5 nM; as for `CCN(Cc1ccccc1)C(=O)Cn1c(=O)n(C)c2nc(-c3ccccc3)ncc21` [Example 54], 0.83 nM.
As for `CCN(Cc1ccccc1)C(=O)Cn1c(=O)n(C)c2nc(-c3ccc(F)cc3)ncc21` [Example 56], the IC50 came to 1.4 nM.
The same measure, in the same setting: as for `CN(Cc1ccc(F)cc1)C(=O)Cn1c(=O)n(C)c2nc(-c3ccccc3)ncc21` [Example 69, N-(4-fluorobenzyl)-8,9-dihydro-9-methyl-N-methyl-8-oxo-2-phenyl-7H-purin-7-acetamide], the figure is 0.55 nM; as for `CCCN(CCC)C(=O)Cn1c(=O)[nH]c2cnc(-c3ccc(Cl)cc3)nc21` [Example 97, 2-(4-chlorophenyl)-7,8-dihydro-8-oxo-N,N-dipropyl-9H-purin-9-acetamide], 0.35 nM; as for `CN(Cc1ccccc1)C(=O)Cn1c(=O)n(C)c2nc(-c3ccccc3)ncc21` [Example 48, N-benzyl-8,9-dihydro-9-methyl-N-methyl-8-oxo-2-phenyl-7H-purin-7-acetamide], 0.68 nM.
`CCN(Cc1ccccc1)C(=O)Cn1c(=O)n(C)c2cnc(-c3ccccc3)nc21` [Example 146, N-benzyl-N-ethyl-7,8-dihydro-7-methyl-8-oxo-2-phenyl-9H-purin-9-acetamide]: the IC50 was found to be 0.85 nM.

System in the next data set: not given
Test: not given
Details: not given
Consider `CN(C(=O)Cn1c(=O)[nH]c2cnc(-c3ccccc3)nc21)c1ccccc1` [Example 98], for which the melting point fell in the range of 286 to 287 °C.
Still for that read-out and setting: the same measure for `CCn1c(=O)n(CC(=O)N(C)c2ccccc2)c2cnc(-c3ccccc3)nc21` [Example 8]: 160 to 161 °C.
`CCCN(CCC)C(=O)Cn1c(=O)n(C)c2nc(-c3ccccc3)ncc21` [Example 26]: the melting point lay within 133 to 134 °C.
The same measure, in the same setting: the same measure for `CCN(C(=O)Cn1c(=O)[nH]c2nc(-c3ccccc3)ncc21)c1ccccc1` [Example 9]: 281 to 284 °C.
As for `CCCn1c(=O)n(CC(=O)N(CC)CC)c2nc(-c3ccccc3)ncc21` [Example 126], the melting point was in the range of 141 to 143 °C.
Same read-out and setting: as for `CCN(Cc1cccc(F)c1)C(=O)Cn1c(=O)n(C)c2nc(-c3ccccc3)ncc21` [Example 75], the figure is 144 to 145 °C.
As to `CCCCN(CCCC)C(=O)Cn1c(=O)n(C)c2nc(-c3ccccc3)ncc21` [Example 63], the melting point is 138 to 139 °C.
`CCCCN(C(=O)Cn1c(=O)n(C)c2nc(-c3ccccc3)ncc21)c1ccccc1` [Example 62]: the melting point lay in the range of 207 to 209 °C.
`CCCCN(CCCC)C(=O)Cn1c(=O)[nH]c2cnc(-c3ccccc3)nc21` [Example 95]: the melting point lay in the range of 196 to 198 °C.
Same read-out and setting: the same measure for `COc1ccc(-c2ncc3c(n2)n(C)c(=O)n3CC(=O)N(C)Cc2ccccc2)cc1` [Example 51]: 205 to 206 °C; for `CCN(Cc1ccccc1)C(=O)Cn1c(=O)n(CC)c2cnc(-c3ccccc3)nc21` [Example 150]: 134 to 136 °C.
`CCCN(CCC)C(=O)Cn1c(=O)[nH]c2cnc(-c3ccc(F)cc3)nc21` [Example 81] came in with a melting point of 213 to 215 °C.
Still for that read-out and setting: the same measure for `CCN(CC)C(=O)Cn1c(=O)n(C)c2nc(-c3ccccc3)ncc21` [Example 19]: 207 to 209 °C; for `CN(C)C(=O)Cn1c(=O)[nH]c2cnc(-c3ccccc3)nc21` [Example 86]: greater than 300 °C; for `CN(C(=O)Cn1c(=O)n(C)c2cnc(-c3cccnc3)nc21)c1ccccc1` [Example 171]: 216 to 217 °C.
On the same count and under the same terms, the same measure for `CCN(Cc1ccc(Cl)cc1)C(=O)Cn1c(=O)n(C)c2nc(-c3ccccc3)ncc21` [Example 77]: 198 to 199 °C.
Still for that read-out and setting: the same measure for `CCCCn1c(=O)n(CC(=O)N(CCC)CCC)c2nc(-c3ccccc3)ncc21` [Example 122]: 129 to 130 °C.
Consider `CCN(CC)C(=O)Cn1c(=O)[nH]c2cnc(-c3ccccc3)nc21` [Example 85], for which the melting point was in the range of 222 to 224 °C.
`CCN(Cc1ccccc1)C(=O)Cn1c(=O)n(C)c2nc(-c3ccccc3)ncc21` [Example 54] displayed a melting point of 112 to 115 °C.
The same measure, in the same setting: as for `CCN(Cc1ccccc1)C(=O)Cn1c(=O)n(C)c2nc(-c3ccc(F)cc3)ncc21` [Example 56], the figure is 155 to 157 °C.
Still for that read-out and setting: as for `CCCN(C(=O)Cn1c(=O)n(C)c2cnc(-c3ccccc3)nc21)c1ccccc1` [Example 169], the figure is 174 to 176 °C; as for `CCCN(C(=O)Cn1c(=O)n(C)c2nc(-c3ccccc3)ncc21)c1ccccc1` [Example 60], 221 to 223 °C.
In the case of `CCCN(CC)C(=O)Cn1c(=O)n(C)c2nc(-c3ccccc3)ncc21` [Example 34], the melting point lay in the range of 150 to 151 °C.
Same read-out and setting: as for `CCN(C(=O)Cn1c(=O)n(C)c2nc(-c3ccc(Cl)cc3)ncc21)c1ccccc1` [Example 11], the figure is 174 to 175 °C; as for `CCCCN(CCCC)C(=O)Cn1c(=O)n(C)c2cnc(-c3ccccc3)nc21` [Example 134], 192 to 193 °C; as for `CCN(CC)C(=O)Cn1c(=O)n(CC)c2nc(-c3ccccc3)ncc21` [Example 25], 148 to 150 °C.
Still for that read-out and setting: the same measure for `CN(C(=O)Cn1c(=O)[nH]c2cnc(-c3cccnc3)nc21)c1ccccc1` [Example 84]: 268 to 270 °C; for `CN(C)C(=O)Cn1c(=O)n(C)c2cnc(-c3ccccc3)nc21` [Example 127]: 262 to 264 °C.
For `CCCn1c(=O)n(CC(=O)N(C)c2ccccc2)c2nc(-c3ccccc3)ncc21` [Example 158], the melting point was in the range of 183 to 185 °C.
The same measure, in the same setting: as for `CCn1c(=O)n(CC(=O)N(C)C)c2nc(-c3ccccc3)ncc21` [Example 128], the figure is 187 to 189 °C.
Same read-out and setting: the same measure for `CCN(CC)C(=O)Cn1c(=O)n(CC)c2cnc(-c3ccccc3)nc21` [Example 125]: 198 to 200 °C; for `CCCn1c(=O)n(CC(=O)N(CC)c2ccccc2)c2cnc(-c3ccccc3)nc21` [Example 17]: 138 to 139 °C; for `CCCN(C(=O)Cn1c(=O)n(CC)c2nc(-c3ccccc3)ncc21)c1ccccc1` [Example 61]: 168 to 170 °C.
In the case of `CCN(C(=O)Cn1c(=O)n(CC)c2cnc(-c3ccccc3)nc21)c1ccccc1` [Example 167], the melting point was 154 to 155 °C.
Molecule `CCCN(CCC)C(=O)Cn1c(=O)n(CC)c2nc(-c3ccccc3)ncc21` [Example 33] registered a melting point of 134 to 135 °C.
Turning to `CCN(C(=O)Cn1c(=O)n(CC)c2nc(-c3ccccc3)ncc21)c1ccccc1` [Example 16], the melting point was 165 to 167 °C.
Same read-out and setting: as for `CCN(C(=O)Cn1c(=O)n(C)c2nc(-c3ccccc3)nc(-c3ccccc3)c21)c1ccccc1` [Example 41], the figure is 185 to 187 °C.
Still for that read-out and setting: the same measure for `CN(C)C(=O)Cn1c(=O)n(C)c2nc(-c3ccccc3)ncc21` [Example 35]: 204 to 206 °C.
The molecule `CCN(C(=O)Cn1c(=O)n(C)c2nc(-c3cccnc3)ncc21)c1ccccc1` [Example 38] showed a melting point of 195 to 196 °C.
The molecule `CCCN(C(=O)Cn1c(=O)[nH]c2cnc(-c3ccccc3)nc21)c1ccccc1` [Example 96] yielded a melting point of 258 to 260 °C.
Same read-out and setting: the same measure for `CCCCN(CCCC)C(=O)Cn1c(=O)n(CC)c2cnc(-c3ccccc3)nc21` [Example 135]: 135 to 136 °C; for `CCCn1c(=O)n(CC(=O)N(CC)c2ccccc2)c2nc(-c3ccccc3)ncc21` [Example 168]: 140 to 142 °C.
For `CCN(CC)C(=O)Cn1c(=O)n(C)c2cnc(-c3ccccc3)nc21` [Example 124], the melting point fell in the range of 204 to 206 °C.
The same measure, in the same setting: the same measure for `CCCN(CCC)C(=O)Cn1c(=O)n(CCC)c2cnc(-c3ccccc3)nc21` [Example 120]: 125 to 127 °C.
